This data set is described as follows: Pharmacokinetic studies: bioavailability after oral administration. As to conditions: in vivo, nach oraler Gabe, read-out: Bioverfügbarkeit. An excerpt:
Als Ergebnis pharmakokinetischer Untersuchungen wurde festgestellt, daß Ipsapiron nach oraler Gabe eine Bioverfügbarkeit von nur 40 % aufweist. Ein erheblicher Wirkstoffanteil wird bereits präsystemisch metabolisiert und kann nicht bioverfügbar werden. Dies ist nachteilig, weil dieser Substanzverlust durch eine erhöhte Wirkstoffdosis ausgeglichen werden muß. Es resultieren große, für den Patienten schlecht schluckbare Arzneiformen und eine erhebliche Belastung des Patienten mit pharmakologisch inaktiven Ipsapiron-Metaboliten. Ferner nehmen mit sinkender Bioverfugbarkeit die interindividuellen Schwankungen im Plasmakonzentrationsverlauf zu und die Therapie wird unkalkulierbar.

Regarding `O=C1c2ccccc2S(=O)(=O)N1CCCCN1CCN(c2ncccn2)CC1` [Ipsapiron], the bioavailability stood at 40%.

(Values after patent EP0629402A1, “Pharmaceutical compositions containing ipsapirone” (BAYER AG, priority 1993, dated 1994).)
